Measured values published in patent US20230085307A1, “PYRIDAZINONE COMPOUND AND HERBICIDE” (NISSAN CHEMICAL CORPORATION, priority 2019, published 2023).

Assays:
[1] = system: windgrass; test: Test Example 4: herbicidal effect by soil treatment (Table 19, symbol L); assay type: in vivo, windgrass (Apera spica-venti); details: 320 g/ha
How it was run: (§1)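 Three weeks of greenhouse growth at 25° C. to 30° C. followed a uniform surface spray of water-diluted emulsion at a predetermined herbicide amount. Seeds had been sown beforehand under about 1.5 cm of sterilized diluvial soil. Grading followed criteria set out in an earlier test.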

[2] = system: velvetleaf; test: Test Example 4: herbicidal effect by soil treatment (Table 19, symbol M); assay type: in vivo, velvetleaf (Abutilon theophrasti); details: 320 g/ha
How it was run: as §1

[3] = system: false cleavers; test: Test Example 4: herbicidal effect by soil treatment (Table 19, symbol Q); assay type: in vivo, false cleavers (Galium spurium); details: 320 g/ha
How it was run: as §1

[4] = system: blackgrass; test: Test Example 4: herbicidal effect by soil treatment (Table 19, symbol J); assay type: in vivo, blackgrass (Alopecurus myosuroides); details: 320 g/ha
How it was run: as §1

[5] = system: green foxtail; test: Test Example 4: herbicidal effect by soil treatment (Table 19, symbol G); assay type: in vivo, green foxtail (Setaria viridis); details: 320 g/ha
How it was run: as §1

[6] = system: oval-leafed pondweed; test: Test Example 1: herbicidal activity, application before weed generation under submerged conditions (Table 16, symbol C); assay type: in vivo, oval-leafed pondweed (Monochoria vaginalis); details: 320 g/ha applied herbicide
How it was run: (§2)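 Alluvial soil was flooded to 4 cm depth, weed seeds were sown mixed and 2.5-leaf rice seedlings were transplanted. On sowing day, the compound's emulsion, diluted in water to a set dose, was applied to the water surface. Plants grew at 25–30 °C and were scored 0–5 after three weeks.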

[7] = system: barnyard grass; test: Test Example 4: herbicidal effect by soil treatment (Table 19, symbol H); assay type: in vivo, barnyard grass (Echinochloa crus-galli); details: 320 g/ha
How it was run: as §1

[8] = system: lambsquarters; test: Test Example 5: herbicidal effect by foliage application, plastic box (Table 20, symbol O); assay type: in vivo, lambsquarters (Chenopodium album); details: foliage application, 320 g/ha, evaluated three weeks after application
How it was run: (§3)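 Plants sown in sterilized diluvial soil and grown 14 days in a greenhouse at 25° C to 30° C, then sprayed on the foliage with the compound's emulsion diluted in water to a predetermined herbicide amount. Injury to weeds and crops scored three weeks after application on a visual rating scale.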

[9] = system: rice flat sedge; test: Test Example 3: herbicidal effect by foliage application, Wagner pot (Table 18, symbol E); assay type: in vivo, rice flat sedge (Cyperus iria); details: 320 g/ha
How it was run: (§4)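 Plants were sown in alluvial soil held under 0.1–0.5 cm standing water and grown 14 days in a greenhouse at 25–30 °C. An emulsifiable formulation, water-diluted to the set dose, was then sprayed onto the foliage, and effects were scored three weeks later using previously defined criteria.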

[10] = system: redroot pigweed; test: Test Example 5: herbicidal effect by foliage application, plastic box (Table 20, symbol N); assay type: in vivo, redroot pigweed (Amaranthus retroflexus); details: foliage application, 320 g/ha, evaluated three weeks after application
How it was run: as §3

[11] = system: velvetleaf; test: Test Example 5: herbicidal effect by foliage application, plastic box (Table 20, symbol M); assay type: in vivo, velvetleaf (Abutilon theophrasti); details: foliage application, 320 g/ha, evaluated three weeks after application
How it was run: as §3

[12] = system: redroot pigweed; test: Test Example 4: herbicidal effect by soil treatment (Table 19, symbol N); assay type: in vivo, redroot pigweed (Amaranthus retroflexus); details: 320 g/ha
How it was run: as §1

[13] = system: lambsquarters; test: Test Example 4: herbicidal effect by soil treatment (Table 19, symbol O); assay type: in vivo, lambsquarters (Chenopodium album); details: 320 g/ha
How it was run: as §1

[14] = system: southern crabgrass; test: Test Example 5: herbicidal effect by foliage application, plastic box (Table 20, symbol F); assay type: in vivo, southern crabgrass (Digitaria ciliaris); details: foliage application, 320 g/ha, evaluated three weeks after application
How it was run: as §3

[15] = system: late watergrass; test: Test Example 1: herbicidal activity, application before weed generation under submerged conditions (Table 16, symbol A); assay type: in vivo, late watergrass (Echinochloa oryzicola); details: 320 g/ha applied herbicide
How it was run: as §2

[16] = system: barnyard grass; test: Test Example 5: herbicidal effect by foliage application, plastic box (Table 20, symbol H); assay type: in vivo, barnyard grass (Echinochloa crus-galli); details: foliage application, 320 g/ha, evaluated three weeks after application
How it was run: as §3

[17] = system: Italian ryegrass; test: Test Example 5: herbicidal effect by foliage application, plastic box (Table 20, symbol K); assay type: in vivo, Italian ryegrass (Lolium multiflorum); details: foliage application, 320 g/ha, evaluated three weeks after application
How it was run: as §3

[18] = system: persian speedwell; test: Test Example 4: herbicidal effect by soil treatment (Table 19, symbol R); assay type: in vivo, Persian speedwell (Veronica persica); details: 320 g/ha
How it was run: as §1

[19] = system: chickweed; test: Test Example 5: herbicidal effect by foliage application, plastic box (Table 20, symbol P); assay type: in vivo, common chickweed (Stellaria media); details: foliage application, 320 g/ha, evaluated three weeks after application
How it was run: as §3

[20] = system: wild oat; test: Test Example 4: herbicidal effect by soil treatment (Table 19, symbol I); assay type: in vivo, wild oat (Avena fatua); details: 320 g/ha
How it was run: as §1

[21] = system: barnyard grass; test: Test Example 3: herbicidal effect by foliage application, Wagner pot (Table 18, symbol H); assay type: in vivo, barnyard grass (Echinochloa crus-galli); details: 320 g/ha
How it was run: as §4

[22] = system: green foxtail; test: Test Example 5: herbicidal effect by foliage application, plastic box (Table 20, symbol G); assay type: in vivo, green foxtail (Setaria viridis); details: foliage application, 320 g/ha, evaluated three weeks after application
How it was run: as §3

[23] = system: false cleavers; test: Test Example 5: herbicidal effect by foliage application, plastic box (Table 20, symbol Q); assay type: in vivo, false cleavers (Galium spurium); details: foliage application, 320 g/ha, evaluated three weeks after application
How it was run: as §3

[24] = system: Italian ryegrass; test: Test Example 4: herbicidal effect by soil treatment (Table 19, symbol K); assay type: in vivo, Italian ryegrass (Lolium multiflorum); details: 320 g/ha
How it was run: as §1

[25] = system: southern crabgrass; test: Test Example 4: herbicidal effect by soil treatment (Table 19, symbol F); assay type: in vivo, southern crabgrass (Digitaria ciliaris); details: 320 g/ha
How it was run: as §1

[26] = system: wild oat; test: Test Example 5: herbicidal effect by foliage application, plastic box (Table 20, symbol I); assay type: in vivo, wild oat (Avena fatua); details: foliage application, 320 g/ha, evaluated three weeks after application
How it was run: as §3

[27] = system: windgrass; test: Test Example 5: herbicidal effect by foliage application, plastic box (Table 20, symbol L); assay type: in vivo, windgrass (Apera spica-venti); details: foliage application, 320 g/ha, evaluated three weeks after application
How it was run: as §3

[28] = system: chickweed; test: Test Example 4: herbicidal effect by soil treatment (Table 19, symbol P); assay type: in vivo, common chickweed (Stellaria media); details: 320 g/ha
How it was run: as §1

[29] = system: Japanese bulrush; test: Test Example 1: herbicidal activity, application before weed generation under submerged conditions (Table 16, symbol B); assay type: in vivo, Japanese bulrush (Schoenoplectus juncoides); details: 320 g/ha applied herbicide
How it was run: as §2

[30] = system: blackgrass; test: Test Example 5: herbicidal effect by foliage application, plastic box (Table 20, symbol J); assay type: in vivo, blackgrass (Alopecurus myosuroides); details: foliage application, 320 g/ha, evaluated three weeks after application
How it was run: as §3

[31] = system: Chinese sprangletop; test: Test Example 3: herbicidal effect by foliage application, Wagner pot (Table 18, symbol D); assay type: in vivo, chinese sprangletop (Leptochloa chinensis); details: 320 g/ha
How it was run: as §4

[32] = system: persian speedwell; test: Test Example 5: herbicidal effect by foliage application, plastic box (Table 20, symbol R); assay type: in vivo, Persian speedwell (Veronica persica); details: foliage application, 320 g/ha, evaluated three weeks after application
How it was run: as §3

Compound: CCCC(=O)Oc1c(C)nn(C)c(=O)c1-c1c(-c2ccc(F)cc2OC)sc2ccc(Cl)cc12 [2-096]
- herbicidal effect rating, L: windgrass [1]: 0 (Herbicidal rate of 5% or less (almost no effect))
- herbicidal effect rating, M: velvetleaf [2]: 0 (Herbicidal rate of 5% or less (almost no effect))
- herbicidal effect rating, Q: false cleavers [3]: 0 (Herbicidal rate of 5% or less (almost no effect))
- herbicidal effect rating, J: blackgrass [4]: 0 (Herbicidal rate of 5% or less (almost no effect))
- herbicidal effect rating, G: green foxtail [5]: 3 (Herbicidal rate of 40% or more and less than 70%)
- Herbicidal effect on C: oval-leafed pondweed (grade 0-5) [6]: 2 (Herbicidal rate of 20% or more and less than 40%)
- herbicidal effect rating, H: barnyard grass [7]: 2 (Herbicidal rate of 20% or more and less than 40%)
- herbicidal effect on O: lambsquarters [8]: 3 (Herbicidal rate of 40% or more and less than 70%)
- herbicidal effect on E (rice flat sedge), rating 0-5 [9]: 3 (Herbicidal rate of 40% or more and less than 70%)
- herbicidal effect on N: redroot pigweed [10]: 3 (Herbicidal rate of 40% or more and less than 70%)
- herbicidal effect on M: velvetleaf [11]: 1 (Herbicidal rate of 5% or more and less than 20%)
- herbicidal effect rating, N: redroot pigweed [12]: 5 (Herbicidal rate of 90% or more (almost completely withered))
- herbicidal effect rating, O: lambsquarters [13]: 3 (Herbicidal rate of 40% or more and less than 70%)
- herbicidal effect on F: southern crabgrass [14]: 3 (Herbicidal rate of 40% or more and less than 70%)
- Herbicidal effect on A: late watergrass (grade 0-5) [15]: 1 (Herbicidal rate of 5% or more and less than 20%)
- herbicidal effect on H: barnyard grass [16]: 4 (Herbicidal rate of 70% or more and less than 90%)
- herbicidal effect on K: Italian ryegrass [17]: 0 (Herbicidal rate of 5% or less (almost no effect))
- herbicidal effect rating, R: persian speedwell [18]: 0 (Herbicidal rate of 5% or less (almost no effect))
- herbicidal effect on P: chickweed [19]: 5 (Herbicidal rate of 90% or more (almost completely withered))
- herbicidal effect rating, I: wild oat [20]: 0 (Herbicidal rate of 5% or less (almost no effect))
- herbicidal effect on H (barnyard grass), rating 0-5 [21]: 3 (Herbicidal rate of 40% or more and less than 70%)
- herbicidal effect on G: green foxtail [22]: 3 (Herbicidal rate of 40% or more and less than 70%)
- herbicidal effect on Q: false cleavers [23]: 4 (Herbicidal rate of 70% or more and less than 90%)
- herbicidal effect rating, K: Italian ryegrass [24]: 0 (Herbicidal rate of 5% or less (almost no effect))
- herbicidal effect rating, F: southern crabgrass [25]: 3 (Herbicidal rate of 40% or more and less than 70%)
- herbicidal effect on I: wild oat [26]: 0 (Herbicidal rate of 5% or less (almost no effect))
- herbicidal effect on L: windgrass [27]: 4 (Herbicidal rate of 70% or more and less than 90%)
- herbicidal effect rating, P: chickweed [28]: 4 (Herbicidal rate of 70% or more and less than 90%)
- Herbicidal effect on B: Japanese bulrush (grade 0-5) [29]: 3 (Herbicidal rate of 40% or more and less than 70%)
- herbicidal effect on J: blackgrass [30]: 4 (Herbicidal rate of 70% or more and less than 90%)
- herbicidal effect on D (Chinese sprangletop), rating 0-5 [31]: 1 (Herbicidal rate of 5% or more and less than 20%)
- herbicidal effect on R: persian speedwell [32]: 3 (Herbicidal rate of 40% or more and less than 70%)
